Data as given in patent US20230330178A1, “USE OF POLYPEPTIDE IN DRUG FOR PREVENTING AND TREATING PNEUMONIA” (priority 2020, published 2023).
Peptide text beside a SMILES is read from it.

Assays:
[1] = tested on: Escherichia coli; assay: animal or person; format: in vivo; settings: vs model control group
Protocol: (§1) Animals in the blank administration group were not modeled, and inhaled a high-concentration polypeptide aerosol (0.48 mg/L) through nose and mouth every day. Animals in the blank control group were instilled with a 0.5 mL 0.9% sodium chloride injection through trachea. After the remaining groups were slightly anesthetized with ether, the model control group, the erythromycin group, the budesonide group, the low-dose polypeptide treatment group, and the high-dose polypeptide treatment group were instilled with a 1×10^8 CFU/mL mixed bacteria solution of Staphylococcus aureus, Streptococcus pneumoniae, and Escherichia coli through trachea, 0.5 mL/rat, respectively, and the blank control group was instilled with a 0.9% sodium chloride injection of a same volume.
(§2) A specific modeling method was as follows: a rat was anesthetized by ether inhalation and lied on an anatomical plate at an angle of 30-45°, trachea of the rat was exposed under an otoscope, a long puncture needle was connected to a 1 mL syringe and inserted into the trachea, each rat was injected with 0.5 mL of mixed bacteria, the puncture needle was pulled out after the injection, the rat was still kept at the original tilt position for about 10 min, and the bacteria solution flowed into bronchus and alveoli due to gravity to cause infection, so as to induce a rat pneumonia model.
(§3) Each group was administrated for the first time at 2 h after modeling. After the experiment begun, 7.16 mg/mL and 71.6 mg/mL peptide solutions were atomized into aerosol particles with target concentrations of 0.07 and 0.48 mg/L every day, and the animals in the low-dose peptide treatment group and the high-dose peptide treatment group (0.54 mg/kg and 3.7 mg/kg, corresponding to drug concentrations 0.07 and 0.48 mg/L respectively) inhaled the aerosol particles with corresponding concentrations through mouth and nose respectively for 7 consecutive days, 10 min/time, 3 times a day; the blank administration group (cumulative dose 22.2 mg/kg, corresponding to a drug concentration 0.48 mg/L) inhaled 0.48 mg/L peptide aerosol particles through mouth and nose every day for 7 consecutive days, 20 min/time, 3 times a day; the blank control group and the model control group inhaled a 0.9% sodium chloride solution for the same time according to the same method; the erythromycin group and the budesonide group were administrated with a 5 mg/mL erythromycin solution and a 0.05 mg/mL budesonide suspension respectively for the same time according to the same method; and body weight of each group was tested every day.
(§4) Except the blank administration group, half animals of the remaining groups were randomly selected for lung function test, gross anatomy examination, and pathological test on D4 day, and lungs of 3 animals in each group were selected for bacteria culture and counting; and on D8 day, the remaining animals were subjected to lung function test, gross anatomy examination, and pathological test, and lungs of 3 animals in each group were selected for bacteria culture and counting (the blank control group and the blank administration group were not examined).
(§5) Experimental steps of bacteria culture: except the blank administration group, six animals were randomly selected from each of the remaining groups (three animals were randomly selected from the first and last anatomies), left middle lobe lung tissues were taken, washed with 0.9% sodium chloride injection, added with double weight of 0.9% sodium chloride injection, and ground into homogenate, the homogenate was inoculated into a meat extract agar medium and cultured at 37° C. for 16 to 18 h, bacteria were isolated, and each isolated bacteria suspension was diluted to 10^−1, 10^−2, 10^−3, 10^−4, 10^−5, 10^−6, 10^−7 and 10^−8 according to 10 times gradient, namely, 9 mL normal saline plus 1 mL bacteria suspension was 10^−1, and so on. […]

[2] = tested on: Streptococcus pneumoniae; assay: animal or person; format: in vivo; settings: vs model control group
Protocol: as §1, §2, §3, §4, §5

[3] = tested on: Staphylococcus aureus; assay: animal or person; format: in vivo; settings: vs model control group
Protocol: as §1, §2, §3, §4, §5

[4] = tested on: SD rats; format: in vivo; parameters: MV: minute ventilation: unit not given here
Protocol: as §1, §3, §4
Experimental steps of gross anatomical examination and pathological test: the rats to be tested were anesthetized by intraperitoneal injection of 20% ethyl carbamate (dose 1000 mg/kg), and lung functions of the rats in each group were first tested with a lung function tester. Blood was collected from a ventral aorta, partial pressure of oxygen (PaO2) and partial pressure of carbon dioxide (PaCO2) in the blood of the rats were measured by using a blood gas analyzer, then left lower lobe lung tissues were taken, fixed in formalin, embedded, sectioned, and stained with HE, and pathological changes were observed under the light microscope.

[5] = Body weight of pneumonia model rats during the experiment; format: in vivo, SD rats; settings: FIG. 4
Protocol: as §3

[6] = D4, high-dose 3.7 mg/kg (0.48 mg/L aerosol) inhaled
[7] = D4, low-dose 0.54 mg/kg (0.07 mg/L aerosol) inhaled
[8] = D8, high-dose 3.7 mg/kg (0.48 mg/L aerosol) inhaled
[9] = D8, low-dose 0.54 mg/kg (0.07 mg/L aerosol) inhaled
[10] = D8, not modeled rats (blank administration group), cumulative dose 22.2 mg/kg (0.48 mg/L aerosol) inhaled 7 days

In the case of `CSCC[C@H](N)C(=O)NCC(=O)N[C@@H](CCCNC(=N)N)C(=O)N[C@@H](Cc1ccccc1)C(=O)N[C@@H](CCCCN)C(=O)N[C@@H](CCCNC(=N)N)C(=O)N[C@@H](Cc1ccccc1)C(=O)N[C@@H](CCCNC(=N)N)C(=O)N[C@@H](CCCCN)C(=O)N[C@@H](CCCCN)C(=O)N[C@@H](Cc1ccccc1)C(=O)N[C@@H](CCCCN)C(=O)N[C@@H](CCCCN)C(=O)N[C@@H](CC(C)C)C(=O)N[C@@H](Cc1ccccc1)C(=O)N[C@@H](CCCCN)C(=O)N[C@@H](CCCCN)C(=O)N[C@@H](CC(C)C)C(=O)N[C@@H](CO)C(=O)O` [polypeptide] (H-MGRFKRFRKKFKKLFKKLS-OH), the “Inhibition rate of escherichia coli” value [1, 6] is reported as 92.16%, the “Inhibition rate of escherichia coli” value [1, 7] is reported as 71.19% and the “Inhibition rate of escherichia coli” value [1, 8] is reported as 96.57%. For the same compound, the “Inhibition rate of escherichia coli” value [1, 9] was 85.77%, the “Inhibition rate of streptococcus pneumoniae” value [2, 6] was 90.49% and the “Inhibition rate of streptococcus pneumoniae” value [2, 7] was 84.14%. For the same compound, the “Inhibition rate of streptococcus pneumoniae” value [2, 8] was 98.74%, the “Inhibition rate of streptococcus pneumoniae” value [2, 9] was 94.95% and the “Inhibition rate of staphylococcus aureus” value [3, 6] was 90.99%. The “Inhibition rate of staphylococcus aureus” value [3, 7] was 80.56%, the “Inhibition rate of staphylococcus aureus” value [3, 8] was 97.43% and the “Inhibition rate of staphylococcus aureus” value [3, 9] was 96.75%. For the same compound, the “FEV200 (forced expiratory volume)” value [4, 10] was 3.77 ± 1.07 mL, the FEV200/FVC [4, 10] was 93.81 ± 3.03% and the “FVC: forced vital capacity” value [4, 10] was 4.01 ± 1.08 mL. For the same compound, the “MV: minute ventilation” value [4, 10] was 0.20 ± 0.04, the “PaCO2: partial pressure of carbon dioxide” value [4, 10] was 33.09 ± 8.33 mmHg and the “PaO2: partial pressure of oxygen” value [4, 10] was 82.77 ± 11.87 mmHg. For the same compound, the “VT: tidal volume” value [4, 10] was 1.76 ± 0.25 mL, the “arterial blood pH” value [4, 10] was 7.46 ± 0.04 and the “f: respiratory rate” value [4, 10] was 116 ± 15 time/min. For the same compound, the Lung tissue microscopy ([4]; D8, not modeled rats (blank administration group), cumulative dose 22.2 mg/kg aerosol inhaled) was “no obvious abnormality”, the “lung function indexes, and WBC, Neu, TNF-α, and IL-6 in alveolar lavage fluid compared with the blank control group” value ([4]; SD rats inhaled 22.2 mg/kg polypeptide solution through nose and mouth for 7 consecutive days) was “no significant difference” and the “body weight compared with the blank control group” value ([4]; not modeled rats (blank administration group), cumulative dose 22.2 mg/kg, FIG. 4) was “no significant difference”. The “body weight compared with the model control group” value ([5]; high-dose 3.7 mg/kg (0.48 mg/L aerosol) inhaled) was “no significant difference” and the “body weight compared with the model control group” value ([5]; low-dose 0.54 mg/kg (0.07 mg/L aerosol) inhaled) was “no significant difference”.
